Consider 3 compounds from US10870647B2, “Imidazopyridine derivative, method for preparing same, and pharmaceutical composition containing same as active ingredient for preventing or treating cancer” (DAEGU-GYEONGBUK MEDICAL INNOVATION FOUNDATION, priority 2016, dated 2020).

Common to all, as to assay: Kinase selectivity, scanMAX Kinase assay panel (DiscoverX), % control at 1 uM
What all share (assay type): binding

Assay [1] addresses T1, scanMAX Kinase assay panel (Homo sapiens, UniProt P36507).
T1 construct: purchased DiscoverX
The settings on record: MEK2; 1 uM; read-out: Percent Control (%). The method in brief:
(§1)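 Activity was called for kinases showing % control under 35, calculated from compound signal relative to positive and negative controls. Each compound screened at 1 uM against the DiscoverX scanMAX panel.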

Assay [2] addresses T2, scanMAX Kinase assay panel (Homo sapiens, UniProt O00238).
T2 construct: purchased DiscoverX
The settings on record: BMPR1B; 1 uM; read-out: Percent Control (%). In short, it runs like this: as §1

For assay [3], the target named is T3, scanMAX Kinase assay panel (Homo sapiens, UniProt P24941).
T3 construct: purchased DiscoverX
To be noted: CDK2; 1 uM; read-out: Percent Control (%). The method in brief: as §1

Assay [4] deals with T4, scanMAX Kinase assay panel (Homo sapiens, UniProt Q9Y5S2).
T4 construct: purchased DiscoverX
To be noted: MRCKB; 1 uM; read-out: Percent Control (%). In short, it runs like this: as §1

For assay [5], the target named is T5, scanMAX Kinase assay panel (Homo sapiens, UniProt Q13163).
T5 construct: purchased DiscoverX
T5 sequence (Q13163 1-448): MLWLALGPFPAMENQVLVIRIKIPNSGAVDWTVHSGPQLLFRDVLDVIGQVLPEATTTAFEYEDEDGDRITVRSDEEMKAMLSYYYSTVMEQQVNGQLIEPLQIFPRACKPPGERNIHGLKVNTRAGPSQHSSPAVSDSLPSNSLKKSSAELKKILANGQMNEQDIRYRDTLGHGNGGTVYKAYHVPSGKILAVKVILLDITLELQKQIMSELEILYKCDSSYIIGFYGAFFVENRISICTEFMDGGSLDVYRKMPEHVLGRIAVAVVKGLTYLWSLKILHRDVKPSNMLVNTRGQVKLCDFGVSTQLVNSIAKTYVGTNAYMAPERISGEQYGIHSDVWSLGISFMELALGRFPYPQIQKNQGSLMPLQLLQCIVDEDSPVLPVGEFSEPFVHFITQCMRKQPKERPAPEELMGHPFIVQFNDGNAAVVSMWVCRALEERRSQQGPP
To be noted: MEK5; 1 uM; read-out: Percent Control (%). The method in brief: as §1

Assay [6] addresses T6, scanMAX Kinase assay panel (Homo sapiens, UniProt Q9UEW8).
T6 construct: purchased DiscoverX
The settings on record: STK39; 1 uM; read-out: Percent Control (%). In short, it runs like this: as §1

The target of assay [7] is T7, scanMAX Kinase assay panel (Homo sapiens, UniProt Q6PHR2).
T7 construct: purchased DiscoverX
T7 sequence (Q6PHR2 1-472): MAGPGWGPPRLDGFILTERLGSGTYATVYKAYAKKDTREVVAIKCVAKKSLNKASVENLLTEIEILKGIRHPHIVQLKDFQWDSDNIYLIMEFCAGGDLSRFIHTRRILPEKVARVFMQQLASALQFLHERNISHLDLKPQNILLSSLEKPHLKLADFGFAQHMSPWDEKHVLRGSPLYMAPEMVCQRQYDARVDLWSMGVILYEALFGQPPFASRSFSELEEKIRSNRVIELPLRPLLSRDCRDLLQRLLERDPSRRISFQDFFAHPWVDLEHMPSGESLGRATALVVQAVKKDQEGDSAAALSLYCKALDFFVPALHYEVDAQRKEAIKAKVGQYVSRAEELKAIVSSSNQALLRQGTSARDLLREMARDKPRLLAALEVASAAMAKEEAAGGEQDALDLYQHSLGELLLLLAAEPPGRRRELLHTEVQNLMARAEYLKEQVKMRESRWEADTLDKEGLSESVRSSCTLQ
The settings on record: ULK3; 1 uM; read-out: Percent Control (%). In short, it runs like this: as §1

The target of assay [8] is T8, scanMAX Kinase assay panel (Homo sapiens, UniProt P08581, M1250T).
T8 construct: purchased DiscoverX
To be noted: MET (M1250T); 1 uM; read-out: Percent Control (%). In short, it runs like this:
as §1

The target of assay [9] is T9, scanMAX Kinase assay panel (Homo sapiens, UniProt O94768).
T9 construct: purchased DiscoverX
T9 sequence (O94768 1-372): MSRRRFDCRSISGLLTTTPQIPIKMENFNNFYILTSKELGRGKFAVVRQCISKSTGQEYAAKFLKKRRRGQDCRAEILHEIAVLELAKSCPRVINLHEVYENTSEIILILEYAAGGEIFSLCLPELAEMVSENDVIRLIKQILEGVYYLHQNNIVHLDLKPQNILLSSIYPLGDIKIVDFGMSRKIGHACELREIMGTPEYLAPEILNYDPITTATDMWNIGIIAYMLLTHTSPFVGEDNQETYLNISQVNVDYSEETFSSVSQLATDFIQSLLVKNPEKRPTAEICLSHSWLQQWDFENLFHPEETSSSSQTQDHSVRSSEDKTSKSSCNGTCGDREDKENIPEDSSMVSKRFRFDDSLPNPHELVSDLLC
To be noted: DRAK2; 1 uM; read-out: Percent Control (%). In short, it runs like this:
as §1

In assay [10] the target is T10, scanMAX Kinase assay panel (Homo sapiens, UniProt P49137).
T10 construct: purchased DiscoverX
To be noted: MAPKAPK2; 1 uM; read-out: Percent Control (%). In short, it runs like this: as §1

Assay [11] has as its target T11, scanMAX Kinase assay panel (Homo sapiens, UniProt Q15375).
T11 construct: purchased DiscoverX
To be noted: EPHA7; 1 uM; read-out: Percent Control (%). In short, it runs like this:
as §1

In assay [12] the target is T12, scanMAX Kinase assay panel (Homo sapiens, UniProt Q02750).
T12 construct: purchased DiscoverX
To be noted: MEK1; 1 uM; read-out: Percent Control (%). In short, it runs like this:
as §1

T11 sequence (Q15375 28-998): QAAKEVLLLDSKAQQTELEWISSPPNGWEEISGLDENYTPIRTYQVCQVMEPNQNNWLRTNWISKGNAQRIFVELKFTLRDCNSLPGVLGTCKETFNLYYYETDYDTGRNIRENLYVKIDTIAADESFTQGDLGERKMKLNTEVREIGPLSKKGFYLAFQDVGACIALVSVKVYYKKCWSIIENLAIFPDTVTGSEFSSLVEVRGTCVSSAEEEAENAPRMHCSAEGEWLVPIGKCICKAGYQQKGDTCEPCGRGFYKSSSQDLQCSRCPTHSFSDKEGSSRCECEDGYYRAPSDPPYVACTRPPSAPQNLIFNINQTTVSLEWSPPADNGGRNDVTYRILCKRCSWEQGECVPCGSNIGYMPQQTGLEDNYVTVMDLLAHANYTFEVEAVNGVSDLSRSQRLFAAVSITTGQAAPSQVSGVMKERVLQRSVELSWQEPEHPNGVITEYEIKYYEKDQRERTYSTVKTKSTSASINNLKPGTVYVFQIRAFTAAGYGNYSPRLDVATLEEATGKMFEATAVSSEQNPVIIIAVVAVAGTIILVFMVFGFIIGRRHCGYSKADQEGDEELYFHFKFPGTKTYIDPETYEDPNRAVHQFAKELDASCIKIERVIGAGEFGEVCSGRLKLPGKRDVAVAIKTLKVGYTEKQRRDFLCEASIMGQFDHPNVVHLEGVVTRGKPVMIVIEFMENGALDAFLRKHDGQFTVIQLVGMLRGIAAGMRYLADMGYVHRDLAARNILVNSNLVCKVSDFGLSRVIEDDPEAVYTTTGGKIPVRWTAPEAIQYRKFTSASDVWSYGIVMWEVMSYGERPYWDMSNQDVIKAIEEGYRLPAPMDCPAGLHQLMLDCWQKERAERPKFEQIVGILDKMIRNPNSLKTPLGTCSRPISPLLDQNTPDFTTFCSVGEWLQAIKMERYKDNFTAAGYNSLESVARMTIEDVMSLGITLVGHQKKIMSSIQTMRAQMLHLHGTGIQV
T2 sequence (O00238 14-502): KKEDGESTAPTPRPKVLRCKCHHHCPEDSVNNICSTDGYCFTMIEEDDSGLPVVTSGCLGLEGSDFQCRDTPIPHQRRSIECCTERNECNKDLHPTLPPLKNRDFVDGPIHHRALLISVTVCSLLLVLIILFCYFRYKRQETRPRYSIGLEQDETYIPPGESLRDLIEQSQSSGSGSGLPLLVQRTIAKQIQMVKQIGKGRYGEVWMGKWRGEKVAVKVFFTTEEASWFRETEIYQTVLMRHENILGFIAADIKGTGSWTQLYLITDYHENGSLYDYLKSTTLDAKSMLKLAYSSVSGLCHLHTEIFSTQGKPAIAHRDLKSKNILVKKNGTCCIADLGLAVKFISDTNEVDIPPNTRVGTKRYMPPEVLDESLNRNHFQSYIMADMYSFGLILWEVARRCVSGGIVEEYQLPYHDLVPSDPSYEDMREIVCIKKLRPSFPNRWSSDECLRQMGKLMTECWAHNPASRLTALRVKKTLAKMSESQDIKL
T4 sequence (Q9Y5S2 whole entry): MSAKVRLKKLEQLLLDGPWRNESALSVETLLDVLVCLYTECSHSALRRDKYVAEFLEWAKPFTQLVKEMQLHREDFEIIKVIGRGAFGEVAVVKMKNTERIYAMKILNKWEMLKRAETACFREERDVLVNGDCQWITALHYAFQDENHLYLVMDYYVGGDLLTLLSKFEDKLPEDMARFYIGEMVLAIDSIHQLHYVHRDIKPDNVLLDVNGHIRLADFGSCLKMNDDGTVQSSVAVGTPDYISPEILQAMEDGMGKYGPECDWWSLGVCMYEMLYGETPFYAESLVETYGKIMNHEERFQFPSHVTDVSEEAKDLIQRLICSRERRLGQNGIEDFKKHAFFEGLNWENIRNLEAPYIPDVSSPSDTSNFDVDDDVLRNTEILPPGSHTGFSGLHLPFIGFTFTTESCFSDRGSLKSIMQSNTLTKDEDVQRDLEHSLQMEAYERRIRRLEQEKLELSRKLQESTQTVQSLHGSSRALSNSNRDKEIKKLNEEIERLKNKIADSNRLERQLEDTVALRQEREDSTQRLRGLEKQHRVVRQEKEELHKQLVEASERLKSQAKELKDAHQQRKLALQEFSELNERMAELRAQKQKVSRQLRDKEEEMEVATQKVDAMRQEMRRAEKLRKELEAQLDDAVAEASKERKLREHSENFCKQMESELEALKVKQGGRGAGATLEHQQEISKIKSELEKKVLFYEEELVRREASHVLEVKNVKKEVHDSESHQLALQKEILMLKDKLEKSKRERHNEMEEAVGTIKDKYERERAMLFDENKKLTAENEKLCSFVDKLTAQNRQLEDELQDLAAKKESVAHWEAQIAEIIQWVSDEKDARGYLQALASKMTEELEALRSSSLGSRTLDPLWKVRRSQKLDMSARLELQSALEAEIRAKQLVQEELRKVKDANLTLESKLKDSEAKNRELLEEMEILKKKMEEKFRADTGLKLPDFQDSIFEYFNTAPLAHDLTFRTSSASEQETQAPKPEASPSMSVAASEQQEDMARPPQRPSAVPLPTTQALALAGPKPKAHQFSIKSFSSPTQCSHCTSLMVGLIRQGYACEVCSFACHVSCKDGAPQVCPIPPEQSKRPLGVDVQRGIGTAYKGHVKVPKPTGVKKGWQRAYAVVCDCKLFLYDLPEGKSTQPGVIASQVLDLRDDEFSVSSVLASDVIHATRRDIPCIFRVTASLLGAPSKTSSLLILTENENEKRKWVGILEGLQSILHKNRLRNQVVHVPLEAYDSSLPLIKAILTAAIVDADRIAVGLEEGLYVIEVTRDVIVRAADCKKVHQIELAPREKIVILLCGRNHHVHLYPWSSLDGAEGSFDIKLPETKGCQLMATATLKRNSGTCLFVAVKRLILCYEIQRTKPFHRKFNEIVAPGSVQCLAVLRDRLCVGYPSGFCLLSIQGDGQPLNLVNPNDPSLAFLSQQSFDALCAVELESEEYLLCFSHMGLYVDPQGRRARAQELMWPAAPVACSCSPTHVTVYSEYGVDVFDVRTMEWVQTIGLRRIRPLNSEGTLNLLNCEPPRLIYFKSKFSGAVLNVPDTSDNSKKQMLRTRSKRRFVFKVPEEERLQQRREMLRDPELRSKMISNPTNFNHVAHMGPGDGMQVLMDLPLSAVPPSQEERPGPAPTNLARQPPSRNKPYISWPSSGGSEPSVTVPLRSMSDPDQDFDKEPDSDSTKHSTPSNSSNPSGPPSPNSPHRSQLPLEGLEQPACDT
T10 sequence (P49137 whole entry): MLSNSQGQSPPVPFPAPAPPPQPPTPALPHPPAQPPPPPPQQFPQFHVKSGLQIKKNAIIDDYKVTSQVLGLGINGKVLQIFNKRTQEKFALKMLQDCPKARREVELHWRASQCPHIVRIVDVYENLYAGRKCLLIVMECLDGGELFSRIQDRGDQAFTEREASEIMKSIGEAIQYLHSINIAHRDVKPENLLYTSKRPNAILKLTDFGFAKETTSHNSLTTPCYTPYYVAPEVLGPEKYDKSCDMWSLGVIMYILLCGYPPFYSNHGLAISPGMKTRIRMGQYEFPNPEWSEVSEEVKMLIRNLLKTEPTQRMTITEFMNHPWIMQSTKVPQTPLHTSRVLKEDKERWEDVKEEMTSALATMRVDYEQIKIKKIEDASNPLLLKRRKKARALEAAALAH
T1 sequence (P36507 whole entry): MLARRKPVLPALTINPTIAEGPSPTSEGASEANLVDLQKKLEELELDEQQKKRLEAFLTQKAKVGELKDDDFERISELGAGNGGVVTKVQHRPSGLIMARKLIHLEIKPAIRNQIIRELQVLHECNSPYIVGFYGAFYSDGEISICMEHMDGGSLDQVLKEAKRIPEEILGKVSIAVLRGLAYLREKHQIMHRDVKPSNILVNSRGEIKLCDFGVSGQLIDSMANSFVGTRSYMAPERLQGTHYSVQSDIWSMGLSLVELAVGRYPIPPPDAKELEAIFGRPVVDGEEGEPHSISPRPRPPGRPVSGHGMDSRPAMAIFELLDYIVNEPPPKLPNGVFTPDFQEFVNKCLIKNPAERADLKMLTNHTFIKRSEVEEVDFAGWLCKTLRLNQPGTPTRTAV
T12 sequence (Q02750 whole entry): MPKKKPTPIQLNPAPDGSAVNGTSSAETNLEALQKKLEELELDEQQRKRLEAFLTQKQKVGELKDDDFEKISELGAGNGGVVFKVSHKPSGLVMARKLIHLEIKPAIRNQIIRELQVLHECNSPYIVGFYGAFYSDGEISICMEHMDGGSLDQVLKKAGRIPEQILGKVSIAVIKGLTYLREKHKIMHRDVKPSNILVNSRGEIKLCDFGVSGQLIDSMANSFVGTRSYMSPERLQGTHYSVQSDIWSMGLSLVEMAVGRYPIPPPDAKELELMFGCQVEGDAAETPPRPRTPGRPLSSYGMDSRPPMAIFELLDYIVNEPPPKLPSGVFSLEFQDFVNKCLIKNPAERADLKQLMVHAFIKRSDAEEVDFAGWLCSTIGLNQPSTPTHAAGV

In the case of `Cc1ccc(C(=O)Nc2ccc(CN3CCN(C)CC3)c(C(F)(F)F)c2)cc1C#Cc1cnc2c(Nc3cnn(C)c3)cccn12` [Example 1, 4-methyl-3-((8-((1-methyl-1H-pyrazol-4-yl)amino)imidazo[1,2-a]pyridin-3-yl)ethynyl)-N-(4-((4-methylpiperazin-1-yl)methyl)-3-(trifluoromethyl)phenyl)benzamide], the remaining binding at 1 µM in [1] was determined as 76%; in assay [2] it was 99%; in [3], 29%; in assay [4] it was 99%; in assay [5], 1%; in assay [6] it was 97%. For the same compound, the remaining binding at 1 µM in assay [7] is 1%; in [8], 32%; in assay [9], 90%; in assay [10] it was 100%; in assay [11] it was 5%; in assay [12], 100%.
For the compound `Cc1ccc(NC(=O)C2(C(=O)Nc3ccc(F)cc3)CC2)cc1C#Cc1cnc2c(Nc3cnn(C(C)C)c3)cccn12` [Example 78], the remaining binding at 1 µM was determined as 97% in assay [1]; 100% in assay [2]; 95% in assay [3]; 100% in assay [4]; 21% in assay [5]; 89% in assay [6]. The remaining binding at 1 µM turned out to be 100% in assay [7]; 91% in [8]; 100% in [9]; 98% in assay [10]; 100% in assay [11]; 100% in [12].
Consider `Cc1cn(-c2cc(NC(=O)c3ccc(C)c(C#Cc4cnc5c(Nc6cnn(C)c6)cccn45)c3)cc(C(F)(F)F)c2)cn1` [Example 12, 4-methyl-N-(3-(4-methyl-1H-imidazol-1-yl)-5-(trifluoromethyl)phenyl)-3-((8-((1-methyl-1H-pyrazol-4-yl)amino)imidazo[1,2-a]pyridin-3-yl)ethynyl)benzamide], for which the remaining binding at 1 µM worked out at 88% in assay [1]; 100% in assay [2]; 85% in assay [3]; 94% in [4]; 1% in assay [5]; 87% in [6]. Further, the remaining binding at 1 µM is 91% in assay [7]; 28% in assay [8]; 95% in assay [9]; 81% in [10]; 69% in assay [11]; 100% in assay [12].
